Experimental data taken from patent US8946215B2, “Hydroxy-substituted imidazo[1,2-a]pyridinecarboxamides and their use” (Bayer Pharma Aktiengesellschaft, priority 2012, dated 2015).
Structures can show the parent of a compound that is named as a salt.

Molecular target: T1, recombinant guanylate cyclase reporter cell line (Rattus norvegicus, UniProt P19686+P20595)
T1 construct: expressed in transfected cells
T1 sequence (P20595 1-619): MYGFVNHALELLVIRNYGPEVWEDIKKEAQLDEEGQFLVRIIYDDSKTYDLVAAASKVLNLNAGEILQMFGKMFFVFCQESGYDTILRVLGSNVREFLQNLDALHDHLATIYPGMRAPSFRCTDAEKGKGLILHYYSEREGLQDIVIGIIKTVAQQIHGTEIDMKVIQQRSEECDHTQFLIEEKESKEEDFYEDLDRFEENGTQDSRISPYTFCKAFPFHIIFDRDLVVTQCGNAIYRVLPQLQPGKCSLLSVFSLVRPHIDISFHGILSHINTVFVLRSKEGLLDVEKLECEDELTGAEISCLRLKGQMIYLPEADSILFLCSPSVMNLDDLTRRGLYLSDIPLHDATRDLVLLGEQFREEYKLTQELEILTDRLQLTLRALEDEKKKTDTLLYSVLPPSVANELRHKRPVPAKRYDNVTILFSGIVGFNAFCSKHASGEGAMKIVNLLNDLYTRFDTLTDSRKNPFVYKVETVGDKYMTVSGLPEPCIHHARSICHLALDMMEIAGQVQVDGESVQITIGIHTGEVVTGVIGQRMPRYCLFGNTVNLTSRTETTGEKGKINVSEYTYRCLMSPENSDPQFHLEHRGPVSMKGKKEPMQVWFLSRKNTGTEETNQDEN
T1 sequence (P19686 1-690): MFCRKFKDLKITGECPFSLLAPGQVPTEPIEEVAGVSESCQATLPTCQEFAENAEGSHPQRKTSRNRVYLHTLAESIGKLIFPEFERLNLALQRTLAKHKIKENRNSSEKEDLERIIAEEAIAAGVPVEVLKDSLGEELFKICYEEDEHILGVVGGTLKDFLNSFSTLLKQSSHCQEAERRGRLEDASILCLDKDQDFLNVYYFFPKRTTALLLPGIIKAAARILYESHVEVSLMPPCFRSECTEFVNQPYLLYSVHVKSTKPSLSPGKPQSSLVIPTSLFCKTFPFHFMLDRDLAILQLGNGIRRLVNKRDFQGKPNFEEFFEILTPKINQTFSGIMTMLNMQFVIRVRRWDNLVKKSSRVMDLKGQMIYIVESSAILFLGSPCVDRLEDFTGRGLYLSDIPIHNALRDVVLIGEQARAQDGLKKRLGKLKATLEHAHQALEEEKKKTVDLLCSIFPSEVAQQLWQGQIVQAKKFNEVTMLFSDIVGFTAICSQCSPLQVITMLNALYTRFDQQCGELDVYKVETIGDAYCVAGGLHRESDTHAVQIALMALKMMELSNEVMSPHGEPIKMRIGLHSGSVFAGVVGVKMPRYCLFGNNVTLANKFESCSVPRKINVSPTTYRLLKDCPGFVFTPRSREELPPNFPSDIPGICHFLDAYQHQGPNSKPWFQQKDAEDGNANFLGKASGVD
Test: Action on recombinant guanylate cyclase reporter cell line
Assay type: cell-based
Details: in some cases mean values obtained from individual determinations
Experimental: B-2. Action on Recombinant Guanylate Cyclase Reporter Cell Line
The cellular action of the compounds according to the invention is determined on a recombinant guanylate cyclase reporter cell line, as described in F. Wunder et al., Anal. Biochem. 339, 104-112 (2005).
Representative values (MEC=minimal effective concentration) for the compounds according to the invention are shown in the following table (in some cases as mean values obtained from individual determinations): […]

Compound | MEC (minimal effective concentration) [µM] | MEC (minimal effective concentration) (trifluoroacetate) [µM]
Cc1cc(OCc2ncccc2F)c2nc(C)c(C(=O)NC(CCC(O)C(F)(F)F)C(C)(C)O)n2c1 (mixture of isomers) [Example 195, 8-[(3-fluoropyridin-2-yl)methoxy]-2,6-dimethyl-N-(7,7,7-trifluoro-2,6-dihydroxy-2-methylheptan-3-yl)imidazo[1,2-a]pyridine-3-carboxamide (stereoisomer mixture)] | 10 | 
Cc1nc2c(OCc3c(F)cccc3F)cccn2c1C(=O)NC1CCC(O)CC1 (racemic) [Example 42, (rac)-8-[(2,6-difluorobenzyl)oxy]-N-(trans-4-hydroxycyclohexyl)-2-methylimidazo[1,2-a]-pyridine-3-carboxamide] | 1.0 | 
CCC(CO)NC(=O)c1c(C)nc2c(OCC3CCCCC3)cccn12 (racemic) [Example 69, (rac)-8-(cyclohexylmethoxy)-N-(1-hydroxybutan-2-yl)-2-methylimidazo)[1,2-a]pyridine-3-carboxamide formate] | 0.1 | 
C=CCC(CO)NC(=O)c1c(C)nc2c(OCC3CCCCC3)cccn12 (racemic) [Example 70, (rac)-8-(cyclohexylmethoxy)-N-(1-hydroxypent-4-en-2-yl)-2-methylimidazo[1,2-a]pyridine-3-carboxamide] | 0.1 | 
Cc1nc2c(OCC3CCCCC3)cccn2c1C(=O)N[C@H]1CCC[C@@H]1O (racemic) [Example 71, (rac)-8-(cyclohexylmethoxy)-N-[trans-2-hydroxycyclopentyl]-2-methylimidazo[1,2-a]-pyridine-3-carboxamide] | 0.1 | 
Cc1nc2c(OCC3CCCCC3)cccn2c1C(=O)N[C@@H]1CCCC[C@H]1O (racemic) [Example 78, (rac)-8-(cyclohexylmethoxy)-N-[(trans)-2-hydroxycyclohexyl]-2-methylimidazo[1,2-a]-pyridine-3-carboxamide] | 0.3 | 
Cc1nc2c(OCc3c(F)cccc3F)cccn2c1C(=O)NC(CO)CC(F)(F)F (racemic) [Example 100, rac-8-[(2,6-Difluorobenzyl)oxy]-2-methyl-N-(4,4,4-trifluoro-hydroxybutan-2-yl)imidazo[1,2-a]-pyridine-3-carboxamide trifluoroacetate] | 0.03 | 
Cc1nc2c(OCc3c(F)cccc3F)cccn2c1C(=O)NC(CO)CCC(F)(F)F (racemic) [Example 101, rac-8-[(2,6-difluorobenzyl)oxy]-2-methyl-N-(5,5,5-trifluoro-1-hydroxypentan-2-yl)-imidazo[1,2-a]pyridine-3-carboxamide trifluoroacetate] | 0.1 | 
Cc1nc2c(OCc3c(F)cccc3F)cccn2c1C(=O)NC(CO)CCCC(F)(F)F (racemic) [Example 102, rac-8-[(2,6-difluorobenzyl)oxy]-2-methyl-N-(6,6,6-trifluoro-1-hydroxyhexan-2-yl)-imidazo[1,2-a]pyridine-3-carboxamide trifluoroacetate] |  | 0.1
Cc1nc2c(OCc3c(F)cccc3F)cccn2c1C(=O)NC(CO)c1ccc(F)cc1 (racemic) [Example 103, rac-8-[(2,6-difluorobenzyl)oxy]-N-[1-(4-fluorophenyl)-2-hydroxyethyl]-2-methylimidazo[1,2-a]pyridine-3-carboxamide trifluoroacetate] | 0.1 | 
Cc1nc2c(OCc3c(F)cccc3F)cccn2c1C(=O)NCC(O)C(F)(F)F (racemic) [Example 106, rac-8-[(2,6-difluorobenzyl)oxy]-2-methyl-N-(3,3,3-trifluoro-2-hydroxypropyl)imidazo[1,2-a]pyridine-3-carboxamide trifluoroacetate] | 0.3 | 
Cc1nc2c(OCc3c(F)cccc3F)cccn2c1C(=O)NC(CO)C(F)(F)F (racemic) [Example 110, rac-8-[(2,6-Difluorobenzyl)oxy]-2-methyl-N-(1,1,1-trifluoro-3-hydroxypropan-2-yl)imidazo[1,2-a]pyridine-3-carboxamide] | 0.3 | 
Cc1nc2c(OCc3c(F)cccc3F)cccn2c1C(=O)NC(CO)CC(F)(F)F (racemic) [Example 113, rac-8-[(2,6-Difluorobenzyl)oxy]-2-methyl-N-(4,4,4-trifluoro-1-hydroxybutan-2-yl)imidazo[1,2-a]-pyridine-3-carboxamide] | 0.03 | 
Cc1nc2c(OCc3c(F)cccc3F)cccn2c1C(=O)NC(CO)CCCC(F)(F)F (racemic) [Example 114, rac-8-[(2,6-difluorobenzyl)oxy]-2-methyl-N-(6,6,6-trifluoro-1-hydroxyhexan-2-yl)imidazo[1,2-a]pyridine-3-carboxamide] | 0.03 | 
Cc1nc2c(OCc3c(F)cccc3F)cccn2c1C(=O)NC(CO)c1ccccn1 (racemic) [Example 119, rac-8-[(2,6-difluorobenzyl)oxy]-N-[2-hydroxy-1-(pyridin-2-yl)ethyl]-2-methylimidazo[1,2-a]-pyridine-3-carboxamide] | 0.3 | 
Cc1nc2c(OCc3c(F)cccc3F)cccn2c1C(=O)NC(CO)c1ccc(S(C)(=O)=O)cc1 (racemic) [Example 120, rac-8-[(2,6-difluorobenzyl)oxy]-N-{2-hydroxy-1-[4-(methylsulphonyl)phenyl]ethyl}-2-methylimidazo[1,2-a]pyridine-3-carboxamide] | 1.0 | 
Cc1nc2c(OCc3c(F)cccc3F)cccn2c1C(=O)NC(CO)c1cccnc1 (racemic) [Example 124, rac-8-[(2,6-Difluorobenzyl)oxy]-N-[2-hydroxy-1-(pyridin-3-yl)ethyl]-2-methylimidazo[1,2-a]-pyridine-3-carboxamide] | 0.3 | 
Cc1nc2c(OCc3c(F)cccc3F)cccn2c1C(=O)NC(CCC(F)(F)F)C(C)(C)O (racemic) [Example 149, rac-8-[(2,6-difluorobenzyl)oxy]-2-methyl-N-(6,6,6-trifluoro-2-hydroxy-2-methylhexan-3-yl)imidazo[1,2-a]pyridine-3-carboxamide] | 0.1 | 
Cc1nc2c(OCc3c(F)cccc3F)cccn2c1C(=O)NC(CCCC(F)(F)F)C(C)(C)O (racemic) [Example 150, rac-8-[(2,6-difluorobenzyl)oxy]-2-methyl-N-(7,7,7-trifluoro-2-hydroxy-2-methylheptan-3-yl)imidazo[1,2-a]pyridine-3-carboxamide] | 0.03 | 
Cc1nc2c(OCc3c(F)cccc3F)cccn2c1C(=O)NC(c1ccc(Cl)cc1)C(C)(C)O (racemic) [Example 151, rac-N-[1-(4-chlorophenyl)-2-hydroxy-2-methylpropyl]-8-[(2,6-difluorobenzyl)oxy]-2-methylimidazo[1,2-a]pyridine-3-carboxamide] | 0.3 | 
Cc1nc2c(OCc3c(F)cccc3F)cccn2c1C(=O)NC(c1ccc(F)cc1)C(C)(C)O (racemic) [Example 152, rac-8-[(2,6-difluorobenzyl)oxy]-N-[1-(4-fluorophenyl)-2-hydroxy-2-methylpropyl]-2-methylimidazo[1,2-a]pyridine-3-carboxamide] | 0.3 | 
CCOCC(CO)NC(=O)c1c(C)nc2c(OCc3c(F)cccc3F)cccn12 (racemic) [Example 160, rac-8-[(2,6-Difluorobenzyl)oxy]-N-(1-ethoxy-3-hydroxypropan-2-yl)-2-methylimidazo[1,2-a]-pyridine-3-carboxamide] | 0.3 | 
CCCOCC(CO)NC(=O)c1c(C)nc2c(OCc3c(F)cccc3F)cccn12 (racemic) [Example 162, rac-8-[(2,6-Difluorobenzyl)oxy]-N-(1-hydroxy-3-propoxypropan-2-yl)-2-methylimidazo[1,2-a]-pyridine-3-carboxamide] | 0.3 | 
